Experimental data as given in patent US20060029743A1, “Wood preservatives and methods of wood preservation” (priority 2004, published 2006).
Converted amounts (≈) assume the structure as drawn. Read-outs that look alike come from different tables or passages of the source.

Columns and labels:
Experiment in all cases: 6-well plate assay, minimal inhibitory concentration
Format in all cases: cell-based
Antrodia vaillantii = settings: for MIC: Fibroporia vaillantii, 168 h, read-out: Effectiveness at Inhibiting Wood-Rotting Fungi, BR3 (minimal inhibitory concentration)
Protocol: (§1) The minimal inhibitory concentration of fungicides against eight fungi was determined in 6-well microtiter plates. Minimal inhibitory concentration is defined as the lowest concentration at which no fungus growth is evident after seven days. A group of eight fungi were used in a screen to identify potential active ingredients to preserve wood. The eight fungi, their classification, and the growth media used to culture them are listed below:
(§2) Growth media were purchased from Difco (from Beckton Dickinson and Co., Sparks, Md.). The growth media were added to water to 2% w/v and autoclaved at 121° C. for 30 min. Autoclaved media were allowed to cool down to ˜50° C. Test chemicals were dissolved in DMSO (dimethyl sulfoxide) individually at 10 mg/mL to generate stock solutions. An appropriate amount of a stock solution was then added to the appropriate growth medium at 50° C. to make up the test media containing various concentrations of individual test chemicals. 10 mL of the medium was added to each well of a 6-well plate and allowed to solidify at room temperature. For each plate, the first well had no chemical, and the remaining five wells contained a particular test chemical at five different concentrations. Eight such plates were prepared for each chemical, using the eight media listed above for the eight test organisms.
(§3) After the media solidified and cooled, a plug (˜2 mm×2 mm) of agar growth medium with fresh grown mycelium from the appropriate fungal culture was used to inoculate each well. The plate was placed in an incubator, and the growth of the fungus monitored. After 4 to 7 days, the growth was scored manually.

Chaetomium globosum = settings: for MIC: Chaetomium globosum, 168 h, read-out: Effectiveness at Inhibiting Wood-Rotting Fungi, SR1 (minimal inhibitory concentration)
Protocol: as §1, §2, §3

Gloeophyllum trabeum = settings: for MIC: Gloeophyllum trabeum, 168 h, read-out: Effectiveness at Inhibiting Wood-Rotting Fungi, BR2 (minimal inhibitory concentration)
Protocol: as §1, §2, §3

Irpex lacteus = settings: for MIC: Irpex lacteus, 168 h, read-out: Effectiveness at Inhibiting Wood-Rotting Fungi, WR2 (minimal inhibitory concentration)
Protocol: as §1, §2, §3

[1] = tested on: Phanerochaete chrysosporium; settings: for MIC: Phanerodontia chrysosporium, 168 h, read-out: Effectiveness at Inhibiting Wood-Rotting Fungi, WR3 (minimal inhibitory concentration)
Protocol: as §1, §2, §3

Postia placenta = settings: for MIC: Rhodonia placenta, 168 h, read-out: Effectiveness at Inhibiting Wood-Rotting Fungi, BR1 (minimal inhibitory concentration)
Protocol: as §1, §2, §3

Trametes versicolor = settings: for MIC: Trametes versicolor, 168 h, read-out: Effectiveness at Inhibiting Wood-Rotting Fungi, WR1 (minimal inhibitory concentration)
Protocol: as §1, §2, §3

[2] = 6-well agar plate, lowest concentration with no growth after seven days

SMILES	MIC (Antrodia vaillantii; [2])	MIC (Chaetomium globosum; [2])	MIC (Gloeophyllum trabeum; [2])	MIC (Irpex lacteus; [2])	MIC [1, 2]	MIC (Postia placenta; [2])	MIC (Trametes versicolor; [2])	other results
CC1=C(C(=O)Nc2ccccc2)SCCO1 [Carboxin]								MIC (Antrodia vaillantii): < 1 µg/mL; MIC (Chaetomium globosum): 1 to 100 µg/mL (≈ 4.25 to 425 µM); MIC (Gloeophyllum trabeum): < 1 µg/mL; MIC (Irpex lacteus): < 1 µg/mL; MIC [1]: < 1 µg/mL; MIC (Postia placenta): 1 to 100 µg/mL (≈ 4.25 to 425 µM); MIC (Trametes versicolor): < 1 µg/mL
CC(C)(C)C(O)C(Oc1ccc(Cl)cc1)n1cncn1 (stereo not shown) [Baytan]								Effectiveness at Inhibiting Wood-Rotting Fungi, BR3 (minimal inhibitory concentration) (Antrodia vaillantii; [2]): 1 (“1” indicates effective inhibition at 1 ppm or less); Effectiveness at Inhibiting Wood-Rotting Fungi, SR1 (minimal inhibitory concentration) (Chaetomium globosum; [2]): 3 (“3” indicates inhibition (if any) only at >100 ppm); Effectiveness at Inhibiting Wood-Rotting Fungi, BR2 (minimal inhibitory concentration) (Gloeophyllum trabeum; [2]): 1 (“1” indicates effective inhibition at 1 ppm or less); Effectiveness at Inhibiting Wood-Rotting Fungi, WR2 (minimal inhibitory concentration) (Irpex lacteus; [2]): 1 (“1” indicates effective inhibition at 1 ppm or less); Effectiveness at Inhibiting Wood-Rotting Fungi, WR3 (minimal inhibitory concentration) [1, 2]: 1 (“1” indicates effective inhibition at 1 ppm or less); Effectiveness at Inhibiting Wood-Rotting Fungi, BR1 (minimal inhibitory concentration) (Postia placenta; [2]): 2 (“2” indicates inhibition at about 1-100 ppm); Effectiveness at Inhibiting Wood-Rotting Fungi, WR1 (minimal inhibitory concentration) (Trametes versicolor; [2]): 1 (“1” indicates effective inhibition at 1 ppm or less)
CCCCNC(=O)n1c(NC(=O)OC)nc2ccccc21 [Benomyl]	1 to 100 µg/mL (≈ 3.44 to 344 µM)	< 1 µg/mL	> 100 µg/mL	> 100 µg/mL	1 to 100 µg/mL (≈ 3.44 to 344 µM)	1 to 100 µg/mL (≈ 3.44 to 344 µM)	> 100 µg/mL	
COC(=O)Nc1nc2ccccc2[nH]1 [Carbendazim]	1 to 100 µg/mL (≈ 5.23 to 523 µM)	< 1 µg/mL	> 100 µg/mL	1 to 100 µg/mL (≈ 5.23 to 523 µM)	1 to 100 µg/mL (≈ 5.23 to 523 µM)	1 to 100 µg/mL (≈ 5.23 to 523 µM)	> 100 µg/mL	
CC(C)(C)C(O)(CCc1ccc(Cl)cc1)Cn1cncn1 (stereo not shown) [Tebuconazole]	< 1 µg/mL	1 to 100 µg/mL (≈ 3.25 to 325 µM)	< 1 µg/mL	< 1 µg/mL	< 1 µg/mL	< 1 µg/mL	< 1 µg/mL	
CN(C)C(=S)[S-].CN(C)C(=S)[S-].CN(C)C(=S)[S-].[Fe+3] [Ferbam]								Effectiveness at Inhibiting Wood-Rotting Fungi, BR3 (minimal inhibitory concentration) (Antrodia vaillantii; [2]): 2 (“2” indicates inhibition at about 1-100 ppm); Effectiveness at Inhibiting Wood-Rotting Fungi, SR1 (minimal inhibitory concentration) (Chaetomium globosum; [2]): 2 (“2” indicates inhibition at about 1-100 ppm); Effectiveness at Inhibiting Wood-Rotting Fungi, BR2 (minimal inhibitory concentration) (Gloeophyllum trabeum; [2]): 3 (“3” indicates inhibition (if any) only at >100 ppm); Effectiveness at Inhibiting Wood-Rotting Fungi, WR2 (minimal inhibitory concentration) (Irpex lacteus; [2]): 2 (“2” indicates inhibition at about 1-100 ppm); Effectiveness at Inhibiting Wood-Rotting Fungi, WR3 (minimal inhibitory concentration) [1, 2]: 2 (“2” indicates inhibition at about 1-100 ppm); Effectiveness at Inhibiting Wood-Rotting Fungi, BR1 (minimal inhibitory concentration) (Postia placenta; [2]): 1 (“1” indicates effective inhibition at 1 ppm or less); Effectiveness at Inhibiting Wood-Rotting Fungi, WR1 (minimal inhibitory concentration) (Trametes versicolor; [2]): 2 (“2” indicates inhibition at about 1-100 ppm)
O=[N+]([O-])c1c(Cl)c(Cl)c(Cl)c(Cl)c1Cl [Pentachloronitrobenzene]								MIC (Antrodia vaillantii): > 100 µg/mL; MIC (Chaetomium globosum): < 1 µg/mL; MIC (Gloeophyllum trabeum): 1 to 100 µg/mL (≈ 3.39 to 339 µM); MIC (Irpex lacteus): > 100 µg/mL; MIC [1]: > 100 µg/mL; MIC (Postia placenta): 1 to 100 µg/mL (≈ 3.39 to 339 µM); MIC (Trametes versicolor): > 100 µg/mL
CO/C=C(\C(=O)OC)c1ccccc1Oc1cc(Oc2ccccc2C#N)ncn1 [Axoxystrobin]								Effectiveness at Inhibiting Wood-Rotting Fungi, BR3 (minimal inhibitory concentration) (Antrodia vaillantii; [2]): 1 (“1” indicates effective inhibition at 1 ppm or less); Effectiveness at Inhibiting Wood-Rotting Fungi, SR1 (minimal inhibitory concentration) (Chaetomium globosum; [2]): 3 (“3” indicates inhibition (if any) only at >100 ppm); Effectiveness at Inhibiting Wood-Rotting Fungi, BR2 (minimal inhibitory concentration) (Gloeophyllum trabeum; [2]): 1 (“1” indicates effective inhibition at 1 ppm or less); Effectiveness at Inhibiting Wood-Rotting Fungi, WR2 (minimal inhibitory concentration) (Irpex lacteus; [2]): 3 (“3” indicates inhibition (if any) only at >100 ppm); Effectiveness at Inhibiting Wood-Rotting Fungi, WR3 (minimal inhibitory concentration) [1, 2]: 3 (“3” indicates inhibition (if any) only at >100 ppm); Effectiveness at Inhibiting Wood-Rotting Fungi, BR1 (minimal inhibitory concentration) (Postia placenta; [2]): 1 (“1” indicates effective inhibition at 1 ppm or less); Effectiveness at Inhibiting Wood-Rotting Fungi, WR1 (minimal inhibitory concentration) (Trametes versicolor; [2]): 3 (“3” indicates inhibition (if any) only at >100 ppm)
CC(Cc1ccc(C(C)(C)C)cc1)CN1C[C@@H](C)O[C@@H](C)C1 (stereo partly shown) [Fenpropimorph]	1 to 100 µg/mL (≈ 3.3 to 330 µM)	> 100 µg/mL	< 1 µg/mL	1 to 100 µg/mL (≈ 3.3 to 330 µM)	1 to 100 µg/mL (≈ 3.3 to 330 µM)	< 1 µg/mL	1 to 100 µg/mL (≈ 3.3 to 330 µM)	
O=[N+]([O-])c1cc(C(F)(F)F)c(Cl)c([N+](=O)[O-])c1Nc1ncc(C(F)(F)F)cc1Cl [Fluazinam]	< 1 µg/mL	< 1 µg/mL	< 1 µg/mL	1 to 100 µg/mL (≈ 2.15 to 215 µM)	1 to 100 µg/mL (≈ 2.15 to 215 µM)	< 1 µg/mL	1 to 100 µg/mL (≈ 2.15 to 215 µM)	
CCCN(CCOc1c(Cl)cc(Cl)cc1Cl)C(=O)n1ccnc1 [Prochloraz]								MIC (Antrodia vaillantii): 1 to 100 µg/mL (≈ 2.65 to 265 µM); MIC (Chaetomium globosum): < 1 µg/mL; MIC (Gloeophyllum trabeum): > 100 µg/mL; MIC (Irpex lacteus): 1 to 100 µg/mL (≈ 2.65 to 265 µM); MIC [1]: 1 to 100 µg/mL (≈ 2.65 to 265 µM); MIC (Postia placenta): > 100 µg/mL; MIC (Trametes versicolor): 1 to 100 µg/mL (≈ 2.65 to 265 µM)
Oc1cccc2cccnc12 [8-Hydroxyquinoline]								MIC (Antrodia vaillantii): < 1 µg/mL; MIC (Chaetomium globosum): > 100 µg/mL; MIC (Gloeophyllum trabeum): > 100 µg/mL; MIC (Irpex lacteus): 1 to 100 µg/mL (≈ 6.89 to 689 µM); MIC [1]: > 100 µg/mL; MIC (Postia placenta): 1 to 100 µg/mL (≈ 6.89 to 689 µM); MIC (Trametes versicolor): 1 to 100 µg/mL (≈ 6.89 to 689 µM)
CON=C(C(=O)OC)c1ccccc1CON=C(C)c1cccc(C(F)(F)F)c1 [Trifloxystrobin]	< 1 µg/mL	> 100 µg/mL	< 1 µg/mL	> 100 µg/mL	> 100 µg/mL	1 to 100 µg/mL (≈ 2.45 to 245 µM)	> 100 µg/mL	
CCCC1COC(Cn2cncn2)(c2ccc(Cl)cc2Cl)O1 (stereo not shown) [Propiconazole]	< 1 µg/mL	< 1 µg/mL	< 1 µg/mL	< 1 µg/mL	< 1 µg/mL	< 1 µg/mL	< 1 µg/mL	
c1ccc2[nH]c(-c3cscn3)nc2c1 [Thiabendazole]	> 100 µg/mL	< 1 µg/mL	> 100 µg/mL	> 100 µg/mL	> 100 µg/mL	> 100 µg/mL	> 100 µg/mL	
Nc1nc(=O)[nH]cc1F [5-Fluorocytosine]	1 to 100 µg/mL (≈ 7.75 to 775 µM)	> 100 µg/mL	> 100 µg/mL	> 100 µg/mL	> 100 µg/mL	< 1 µg/mL	1 to 100 µg/mL (≈ 7.75 to 775 µM)	
